Key:
hMC5-R = hMC5-R (Homo sapiens, UniProt P33032); experiment: Competitive inhibition binding assay, 125I-NDP-α-MSH, hMC5-R membranes; conditions: 1 μM test compound; 0.4 nM 125I-NDP-α-MSH; mean of triplicate; results less than 0% reported as 0%; read-out: Inhibition at 1 μM MC5-R
Procedure: (§1) Competitive inhibition assay. A competitive inhibition binding assay was conducted using membranes prepared from hMC1-R or B-16 mouse melanoma cells (containing MC1-R), hMC3-R, hMC4-R, and hMC5-R, and using 0.4 nM ^125I-NDP-α-MSH (New England Nuclear, Boston, Mass., USA) in 50 mM HEPES buffer containing 1 mM MgCl2, 2 mM CaCl2, and 5 mM KCl, at pH 7.2. The assay tube also contained a chosen concentration of the test compound of this invention, typically a 1 μM concentration, for determining its efficacy in inhibiting the binding of ^125I-NDP-α-MSH to its receptor. Non-specific binding was measured by complete inhibition of binding of ^125I-NDP-α-MSH in the assay with the presence of 1 μM α-MSH.
(§2) Incubation was for 90 minutes at room temperature, after which the assay mixture was filtered and the membranes washed three times with ice cold buffer. The filter was dried and counted in a gamma counter for remaining radioactivity bound to the membranes. 100% specific binding was defined as the difference in radioactivity (cpm) bound to cell membranes in the absence and presence of 1 μM α-MSH. The cpm obtained in the presence of test compounds are normalized with respect to 100% specific binding to determine the percent inhibition of ^125I-NDP-a-MSH binding. Each assay was conducted in triplicate and the actual mean values are described, with results less than 0% reported as 0%.

hMC1-R = hMC1-R (Homo sapiens, UniProt Q01726); experiment: Competitive inhibition binding assay, 125I-NDP-α-MSH, hMC1-R membranes; conditions: 1 μM test compound; 0.4 nM 125I-NDP-α-MSH; mean of triplicate; results less than 0% reported as 0%; read-out: Inhibition at 1 μM MC1-R (human)
hMC1-R, sequence (Q01726 whole entry): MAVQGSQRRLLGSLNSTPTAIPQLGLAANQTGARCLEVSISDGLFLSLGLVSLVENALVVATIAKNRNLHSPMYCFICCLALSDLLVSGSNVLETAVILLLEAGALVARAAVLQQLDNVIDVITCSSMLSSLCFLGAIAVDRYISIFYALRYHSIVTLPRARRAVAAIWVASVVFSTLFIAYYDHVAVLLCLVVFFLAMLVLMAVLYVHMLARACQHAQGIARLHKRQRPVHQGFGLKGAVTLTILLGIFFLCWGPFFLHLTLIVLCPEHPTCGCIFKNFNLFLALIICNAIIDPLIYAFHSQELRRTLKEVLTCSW
Procedure: as §1, §2

hMC3-R = hMC3-R (Homo sapiens, UniProt P41968); experiment: Competitive inhibition binding assay, 125I-NDP-α-MSH, hMC3-R membranes; conditions: 1 μM test compound; 0.4 nM 125I-NDP-α-MSH; mean of triplicate; results less than 0% reported as 0%; read-out: Inhibition at 1 μM MC3-R
hMC3-R, sequence (P41968 whole entry): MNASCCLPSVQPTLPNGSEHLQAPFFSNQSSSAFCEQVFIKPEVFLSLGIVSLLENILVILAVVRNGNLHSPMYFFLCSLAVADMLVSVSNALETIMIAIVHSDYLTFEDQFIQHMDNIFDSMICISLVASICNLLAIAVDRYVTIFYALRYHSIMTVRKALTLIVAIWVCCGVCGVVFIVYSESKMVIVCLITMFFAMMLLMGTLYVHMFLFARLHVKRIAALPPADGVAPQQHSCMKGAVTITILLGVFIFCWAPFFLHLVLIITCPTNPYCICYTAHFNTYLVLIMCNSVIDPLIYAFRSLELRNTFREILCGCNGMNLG
Procedure: as §1, §2

hMC4-R = hMC4-R (Homo sapiens, UniProt P32245); experiment: Competitive inhibition binding assay, 125I-NDP-α-MSH, hMC4-R membranes; conditions: 1 μM test compound; 0.4 nM 125I-NDP-α-MSH; mean of triplicate; results less than 0% reported as 0%; read-out: Inhibition at 1 μM MC4-R
hMC4-R, sequence (P32245 whole entry): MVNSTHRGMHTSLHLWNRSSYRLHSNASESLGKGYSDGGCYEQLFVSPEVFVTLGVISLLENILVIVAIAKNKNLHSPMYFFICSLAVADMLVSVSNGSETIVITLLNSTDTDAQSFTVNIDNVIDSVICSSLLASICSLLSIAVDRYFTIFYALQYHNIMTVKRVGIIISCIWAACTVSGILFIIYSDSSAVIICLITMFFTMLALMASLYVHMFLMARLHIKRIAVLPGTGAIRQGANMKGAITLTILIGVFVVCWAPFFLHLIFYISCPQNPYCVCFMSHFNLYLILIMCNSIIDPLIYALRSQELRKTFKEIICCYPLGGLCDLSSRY
Procedure: as §1, §2

[1] = target: T1, B-16 mouse melanoma cells (containing MC1-R) (Mus musculus, UniProt Q01727); experiment: Competitive inhibition binding assay, 125I-NDP-α-MSH, B-16 mouse melanoma cell membranes; conditions: 1 μM test compound; 0.4 nM 125I-NDP-α-MSH; mean of triplicate; results less than 0% reported as 0%; read-out: Inhibition at 1 μM MC1-R (murine)
T1 construct: B-16 mouse melanoma cells (containing MC1-R); endogenous in cells; host or cells: B-16 mouse melanoma cells
T1 sequence (Q01727 whole entry): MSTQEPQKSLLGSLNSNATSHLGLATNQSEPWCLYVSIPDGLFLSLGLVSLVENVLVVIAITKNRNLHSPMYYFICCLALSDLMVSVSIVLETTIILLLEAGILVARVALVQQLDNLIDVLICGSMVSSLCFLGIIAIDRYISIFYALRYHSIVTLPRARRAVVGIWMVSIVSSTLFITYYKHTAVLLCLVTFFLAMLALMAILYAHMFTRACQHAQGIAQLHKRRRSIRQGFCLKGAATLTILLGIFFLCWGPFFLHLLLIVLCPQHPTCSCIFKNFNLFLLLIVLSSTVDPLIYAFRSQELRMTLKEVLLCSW
Procedure: as §1, §2

hMC5-R, sequence (P33032 whole entry): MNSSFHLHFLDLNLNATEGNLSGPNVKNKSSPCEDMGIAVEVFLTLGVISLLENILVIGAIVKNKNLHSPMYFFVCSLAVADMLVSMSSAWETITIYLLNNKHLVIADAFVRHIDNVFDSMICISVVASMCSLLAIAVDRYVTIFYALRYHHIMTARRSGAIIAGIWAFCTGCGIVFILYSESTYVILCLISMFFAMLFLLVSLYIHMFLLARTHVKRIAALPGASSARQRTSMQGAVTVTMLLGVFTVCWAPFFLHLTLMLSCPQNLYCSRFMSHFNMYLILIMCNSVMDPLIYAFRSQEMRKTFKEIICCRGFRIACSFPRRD

Row | Compound | inhibition at 1 µM (hMC5-R) [%] | inhibition at 1 µM (hMC1-R) [%] | inhibition at 1 µM (hMC3-R) [%] | inhibition at 1 µM (hMC4-R) [%] | inhibition at 1 µM [1] [%]
1 | N[C@H](Cc1ccc2ccccc2c1)C(=O)N1C[C@H](Cc2ccccc2)NC[C@H]1Cc1ccc2ccccc2c1 [Example 3, (R)-2-Amino-1-((2R,5S)-5-benzyl-2-naphthalen-2-ylmethyl-piperazin-1-yl)-3-naphthalen-2-yl-propan-1-one] | 21 | 10 | 19 | 39 | –
2 | N[C@H](Cc1ccc(Cl)cc1Cl)C(=O)N1C[C@H](Cc2ccccc2)NC[C@H]1Cc1ccc2ccccc2c1 [Example 5, (R)-2-Amino-1-((2R,5S)-5-benzyl-2-naphthalen-2-ylmethyl-piperazin-1-yl)-3-(2,4-dichloro-phenyl)-propan-1-one] | 22 | 0 | 12 | 34 | –
3 | O=C(CCc1ccc(Cl)cc1Cl)N1C[C@H](Cc2ccccc2)NC[C@H]1Cc1ccc2ccccc2c1 [Example 2, 1-((2R,5S)-5-Benzyl-2-naphthalen-2-ylmethyl-piperazin-1-yl)-3-(2,4-dichloro-phenyl)-propan-1-one] | 6 | 9 | 9 | 18 | –
4 | N[C@H](Cc1ccc(Cl)cc1Cl)C(=O)N1C[C@H](Cc2ccccc2)NC[C@H]1Cc1ccccc1 [Example 10, (R)-2-Amino-1-((2R,5S)-2,5-dibenzyl-piperazin-1-yl)-3-(2,4-dichloro-phenyl)-propan-1-one] | 0 | – | 0 | 13 | 0
5 | CCCC(CCC)C(=O)N[C@H](Cc1ccc(Cl)cc1)C(=O)N1CCN[C@H](Cc2ccc3ccccc3c2)C1 [Example 28, 2-Propyl-pentanoic acid [(R)-1-(4-chloro-benzyl)-2-((R)-3-naphthalen-2-ylmethyl-piperazin-1-yl)-2-oxo-ethyl]-amide] | -4 | – | 0 | 38 | 0

Second part, the compound after the results:

Row | inhibition at 1 µM (hMC5-R) [%] | inhibition at 1 µM (hMC1-R) [%] | inhibition at 1 µM (hMC3-R) [%] | inhibition at 1 µM (hMC4-R) [%] | inhibition at 1 µM [1] [%] | Compound
6 | 13 | 17 | 9 | 16 | 0 | N[C@H](Cc1ccccc1)C(=O)N1C[C@@H](Cc2ccc3ccccc3c2)NC[C@@H]1Cc1ccccc1 [Example 7, (R)-2-Amino-1-((2S,5R)-2-benzyl-5-naphthalen-2-ylmethyl-piperazin-1-yl)-3-phenyl-propan-1-oneylamino-3-phenyl-propan-1-one]
7 | 13 | 0 | 12 | 4 | 0 | N[C@H](Cc1ccccc1)C(=O)N1C[C@H](Cc2ccccc2)NC[C@H]1Cc1ccccc1 [Example 6, (R)-2-Amino-1-((2R,5S)-2,5-dibenzyl-piperazin-1-yl)-3-phenyl-propan-1-one]
8 | 8 | 0 | 14 | 33 | – | N[C@H](Cc1ccccc1)C(=O)N1C[C@H](Cc2ccccc2)NC[C@H]1Cc1ccc2ccccc2c1 [Example 1, (R)-2-Amino-1-((2R,5S)-5-benzyl-2-naphthalen-2-ylmethyl-piperazin-1-yl)-3 phenyl-propan-1-one]
9 | 11 | 6 | 13 | 25 | – | N[C@@H](Cc1ccccc1)C(=O)N1C[C@H](Cc2ccccc2)NC[C@H]1Cc1ccc2ccccc2c1 [Example 4, (S)-2-Amino-1-((2R,5S)-5-benzyl-2-naphthalen-2-ylmethyl-piperazin-1-yl)-3-phenyl-propan-1-one]
10 | 12 | – | 0 | 8 | 0 | N[C@@H](Cc1ccccc1)C(=O)N1C[C@@H](Cc2ccccc2)NC[C@@H]1Cc1ccccc1 [Example 18, (S)-2-Amino-1-((2S,5R)-2,5-dibenzyl-piperazin-1-yl)-3-phenyl-propan-1-one]

Reference: patent US7709484B1, “Substituted melanocortin receptor-specific piperazine compounds” (Palatin Technologies, Inc., priority 2004, dated 2010)
